Source: the supplement of paper PMC11616607

Assays:
Assay in all cases: drug sensitivity score (DSS) from 5-point dose-response viability curve (DSS (area-under-curve based score)); higher = more sensitive (stronger growth inhibition or killing); extreme values may be limits of the assay
Conditions in all cases: exposure time: 72 h; concentration range: 5 concentrations over 10,000-fold range
CAOV3 = test system: CAOV3
Method in brief: (§1)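 Drugs in DMSO or water were acoustically dispensed (Echo 550) into 384-well plates at five concentrations across a 10,000-fold range. Ovarian cancer and normal ovarian cells (1,500 per well) were then added, incubated for 3 days at 37°C with 5% CO2, and read for viability by CellTiter-Glo luminescence on a PHERAstar FS. From these readings, Breeze software derived a drug sensitivity score per cell line and drug, with higher values meaning more sensitive and zero meaning no response.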

HOSE1C = test system: HOSE1C
Method in brief: as §1

OV90 = test system: OV90
Method in brief: as §1

Ovsaho = test system: Ovsaho
Method in brief: as §1

COV362 = test system: COV362
Method in brief: as §1

OVCAR8 = test system: OVCAR8
Method in brief: as §1

HOSE2C = test system: HOSE2C
Method in brief: as §1

Kuramochi = test system: Kuramochi
Method in brief: as §1

COV318 = test system: COV318
Method in brief: as §1

OVCAR5 = test system: OVCAR5
Method in brief: as §1

JHOS2 = test system: JHOS2
Method in brief: as §1

OVCAR4 = test system: OVCAR4
Method in brief: as §1

SMILES | drug sensitivity score (CAOV3) | drug sensitivity score (HOSE1C) | drug sensitivity score (OV90) | drug sensitivity score (Ovsaho) | drug sensitivity score (COV362) | drug sensitivity score (OVCAR8) | drug sensitivity score (HOSE2C) | drug sensitivity score (Kuramochi) | drug sensitivity score (COV318) | drug sensitivity score (OVCAR5) | drug sensitivity score (JHOS2) | drug sensitivity score (OVCAR4)
Cc1cc(F)c(C(=O)Nc2cccc(-c3nncn3C(C)C)n2)cc1-n1cnc(C2CC2)c1 [Selonsertib] | 0 | 0 | 0.1 | 0 | 0 | 0 | 0 | 0 | 0 | 0 | 0 | 0
Cn1cnc2c(F)c(Nc3ccc(Br)cc3Cl)c(C(=O)NOCCO)cc21 [Selumetinib] | 11.2 | 0.2 | 20.1 | 11.1 | 5.8 | 2.1 | 0 | 5.4 | 0 | 11.2 | 5.4 | 4.2
CN1CCN(C(=O)c2ccc3cc(CCNc4ncnc5ccc(C#N)cc45)ccc3c2)CC1 [Senexin B] | 0.2 | 0 | 0.5 | 1.3 | 0 | 0.2 | 0 | 2.6 | 0 | 1.7 | 0 | 1.1
Nc1nc2cc(-c3ccc4ncc(C(=O)N5CCOCC5)n4c3)ccc2o1 [Serabelisib] | 2.9 | 0 | 0.1 | 0.8 | 0 | 0 | 5.1 | 0 | 0 | 1.8 | 0 | 0
O=C(O)c1ccc2c(c1)nc(Nc1cccc(Cl)c1)c1ccncc12 [Silmitasertib] | 8.6 | 7.7 | 5.8 | 4.7 | 0.9 | 4.7 | 4.5 | 5.5 | 3.2 | 5.3 | 4.4 | 3.3
CCC(C)(C)C(=O)O[C@H]1C[C@@H](C)C=C2C=C[C@H](C)[C@H](CC[C@@H]3C[C@@H](O)CC(=O)O3)[C@H]21 [Simvastatin] | 0.1 | 8.7 | 1.5 | 3.5 | 0.4 | 2.9 | 8.8 | 1.3 | 0 | 0 | 0.2 | 0.7
CO[C@H]1C[C@@H]2CC[C@@H](C)[C@@](O)(O2)C(=O)C(=O)N2CCCC[C@H]2C(=O)O[C@H]([C@H](C)C[C@@H]2CC[C@@H](O)[C@H](OC)C2)CC(=O)[C@H](C)/C=C(\C)[C@@H](O)[C@@H](OC)C(=O)[C@H](C)C[C@H](C)/C=C/C=C/C=C/1C [Sirolimus] | 3.9 | 4.8 | 7.7 | 4.4 | 0 | 4 | 0 | 3.8 | 1.2 | 4.3 | 3.6 | 1.9
